Among the data in BindingDB's records for doi:10.1016/j.chembiol.2005.12.008 (Academia Sinica, 2006) are IC50 and Ki values, retold here.

The target in the assay is Replicase polyprotein 1ab (Severe acute respiratory syndrome coronavirus, UniProt P0C6X7). As to the kind of experiment: Inhibition Assay. Conditions: pH 7.5. An excerpt:
Inhibition assay against SARS-CoV 3CL protease, a fluorometric assay was utilized to determine the inhibition constants of the samples.

Regarding `O=C(Cn1nnc2ccccc21)c1ccc([N+](=O)[O-])cc1` [Benzotriazole ester, 13], the IC50 is more than 50 µM.

The compound `Nc1ccc(C(=O)Cn2nnc3ccccc32)cc1` [Benzotriazole ester, 15] had an IC50 of more than 50 µM.

The compound `Nc1ccc(C(O)Cn2nnc3ccccc32)cc1` (stereo not given) [Benzotriazole ester, 16] returned an IC50 of more than 50 µM.

Regarding `CNc1ccc(C(O)Cn2nnc3ccccc32)cc1` (stereo not given) [Benzotriazole ester, 19], the inhibitory constant (Ki) was more than 50 µM.

Compound `CN(C)c1ccc(C(O)Cn2nnc3ccccc32)cc1` (stereo not given) [Benzotriazole ester, 20] showed a Ki of more than 50 µM.
